Measured values reported in patent publication US9999636B2, “Insulin-mimetics as therapeutic adjuncts for bone regeneration” (Rutgers, The State University of New Jersey, priority 2010, dated 2018).
Marks after values point to notes of the source that are not given here.

Assays:
[1] = 10.0 mg/kg local, no carrier
Text: Diabetic Resistance (DR) BB Wistar rats used in the study were obtained from a breeding colony at UMDNJ-New Jersey Medical School (NJMS). The rats were housed under controlled environmental conditions and fed ad libitum. All research protocols were approved by the Institutional Animal Care and Use Committee at University of Medicine and Dentistry of New Jersey-New Jersey Medical School.
Doses of ZnCl2 were not based on each animal's body weight, but on a lower theoretically tolerable dose for a 290-gram BB Wistar rat, which would not elicit heavy metal poisoning or behavioral changes. This weight is over 50 grams lower than the average weight of non-diabetic BB Wistar rats at an age of approximately 90 days (the age of investigation in this study). A 0.1 ml volume of the ZnCl2 solution was administered locally via a single injection into the marrow space for each dose examined.

[2] = system: closed mid-diaphyseal femur fracture; assay: Torsional mechanical testing of fractured femora, local ZnCl2 with or without CaSO4 carrier; assay type: in vivo, BB Wistar rat; parameters: Percent Effective Shear Stress: scale not given: direction of the effect not stated beside the values; details: for mode of torsional failure: femurs harvested 4 weeks post-surgery (FIG. 2)
Text: In addition to the biomechanical parameters determined through torsional testing, the mode of failure can also provide substantial information. The mode of torsional failure as determined by gross inspection provided an indication as to the extent of healing. A spiral failure in the mid-diaphyseal region indicated a complete union while a transverse failure through the fracture site indicated a nonunion. A combination spiral/transverse failure indicated a partial union (FIG. 2).
To prepare the ZnCl2/CaSO4 mixture, CaSO4 (2 g) were placed in glass vials. The vials were placed in an autoclave and sterilized […] in a dry cycle. CaSO4 powder (0.8 g) was mixed with 400 μl of saline or 400 μl of ZnCl2 solution (1.0 mg/kg) for one minute at room temperature. The mixture was packed into the barrel of a 1 cc sterile syringe and pushed down into the open orifice of the syringe barrel by insertion of the syringe plunger. After attaching an 18-gauge sterile needle to the syringe barrel, 0.1 ml volume of the mixture was directly injected into the rat femoral canal (non-diabetic BB Wistar rat) prior to Kirschner wire insertion and fracture.

[3] = system: posterolateral intertransverse lumbar fusion L4-L5; assay: Radiographic grading of posterolateral lumbar spinal fusion; assay type: in vivo, Sprague-Dawley rat; details: n = 10, eight weeks
[4] = system: closed mid-diaphyseal femur fracture; details: four weeks post-fracture
Text: X-rays are taken at two-week intervals to the day of euthanasia. After euthanasia x-rays are taken as well. To take x-rays, animals will be given a half dose of anesthesia. All groups will be monitored closely for four days after surgery for infection, and the ability to ambulate freely.

[5] = high dose 1.0 mg/kg Calcium Sulfate pellet, 1 mg/kg
[6] = low dose 0.5 mg/kg Calcium Sulfate pellet, listed as zinc, 0.5 mg/kg

**Q.** For [Cl-].[Cl-].[Zn+2] [ZnCl2, Zinc chloride], which “Blood Glucose 12 Hours Post-Surgery” value [1] is on record?
**A.** Its value is 87.7 ± 8.5 ^a mg/dl.

**Q.** What about the “mode of torsional failure” value ([2]; 1.0 mg/kg) of the same compound?
**A.** Its value is “spiral fracture indicative of healing”.

**Q.** And the “mode of torsional failure” value ([2]; 3.0 mg/kg)?
**A.** Its value is “spiral fracture indicative of healing”.

**Q.** And the “Percent Effective Shear Stress” value ([2]; 10.0 mg/kg, no carrier, 4 weeks post-fracture, normalized to contralateral (intact) femur)?
**A.** Its value is 27 ± 11%.

**Q.** And the “time in which fracture healing resolved” value ([2]; applied directly to fracture site, instead of average eight to ten weeks in standard rat femur fracture model)?
**A.** The value was “four to five weeks”.

**Q.** Which “Radiographs: number graded A = solid fusion mass bilaterally” value [3, 5] does the source give for [Zn] [Zn] here?
**A.** The value was 7.

**Q.** And the “Radiographs: number graded D = Graft resorption” value [3, 5]?
**A.** The value was 0.

**Q.** What about the “Radiographs: number graded A = solid fusion mass bilaterally” value [3, 6] of the same compound?
**A.** Its value is 7/10.

**Q.** What about the “Radiographs: number graded D = Graft resorption” value [3, 6] of the same compound?
**A.** The value was 0/10.

**Q.** Which “mineralized tissue on radiographs” value ([4]; 0.25 mg/kg, vs saline controls) does the source give for manganese chloride [MnCl2] here?
**A.** The value was “increased mineralized tissue”.

**Q.** What about the union on radiographs ([4]; saline control had no evidence of union) of the same compound?
**A.** Its union on radiographs is “demonstrated union at the subperiosteal bony area and at the callus”.
